The values that follow come from patent US8993574B2, “Pyrrole antifungal agents” (F2G Ltd, priority 2008, dated 2015).

What all share (type): cell-based
Experiment [1] has as its system Aspergillus terreus AT49. The experiment is described as follows: MIC, YAG medium. The conditions noted are these: 24 h at 35° C, MIC banded into grades; for MIC: Aspergillus terreus, read-out: MIC grade, A. terreus 49. Put shortly:
(§1)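 Broth microdilution in YAG medium tests compound over 50-0.05 mg/L against spores at 1−2×10^4 cfu/mL. After 24 h incubation at 35° C, optical density at 485 nm gives growth, and the MIC is the lowest concentration reducing it by more than 70% relative to untreated control.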

The subject of experiment [2] is Aspergillus fumigatus AF293. Briefly: MIC, YAG medium. As to conditions: 24 h at 35° C, MIC banded into grades; for MIC: Aspergillus fumigatus, read-out: MIC grade, A. fumigatus. In a few lines: as §1
Experiment [3] concerns Aspergillus niger. The experiment is described as follows: MIC, YAG medium. As to conditions: 24 h at 35° C, MIC banded into grades; for MIC: Aspergillus niger, read-out: MIC grade, A. niger. In a few lines:
as §1

Experiment [4] concerns Aspergillus terreus AT4. The experiment is described as follows: MIC, YAG medium. As to conditions: 24 h at 35° C, MIC banded into grades; for MIC: Aspergillus terreus, read-out: MIC grade, A. terreus. Put shortly: as §1
Experiment [5] has as its system Aspergillus flavus. The experiment is described as follows: MIC, YAG medium. As to conditions: 24 h at 35° C, MIC banded into grades; for MIC: Aspergillus flavus, 24 h, read-out: MIC grade, A. flavus. In a few lines: as §1
The subject of experiment [6] is Aspergillus fumigatus AF210. Briefly: MIC, YAG medium. The conditions noted are these: 24 h at 35° C, MIC banded into grades; for MIC: Aspergillus fumigatus, read-out: MIC grade, A. fumigatus 210. Put shortly: as §1
Experiment [7] deals with Aspergillus terreus AT49. Briefly: MIC, RPMI medium. As to conditions: for MIC grade, A. terreus 49: MIC banded into grades; for MIC: Aspergillus terreus, AT49, MIC banded into grades, read-out: MIC grade, A. terreus 49. In a few lines:
(§2)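 Minimum inhibitory concentrations were determined in glucose-supplemented (2%) RPMI buffered to pH 7.0 with 0.135 M MOPS. Wells held 1−2×10^4 cfu/mL and compound from 50 to 0.05 mg/L, incubated 24-48 h at 35° C, with >80% growth reduction by OD 485 nm as endpoint.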

The subject of experiment [8] is Aspergillus fumigatus AF293. The experiment is described as follows: MIC, RPMI medium. The conditions noted are these: for MIC grade, A. fumigatus: MIC banded into grades; for MIC: Aspergillus fumigatus, AF293, MIC banded into grades, read-out: MIC grade, A. fumigatus. Put shortly:
as §2

Experiment [9] has as its system Aspergillus niger. Briefly: MIC, RPMI medium. As to conditions: MIC banded into grades; for MIC: Aspergillus niger, read-out: MIC grade, A. niger. In a few lines: as §2
Experiment [10] relates to Aspergillus terreus AT4. Briefly: MIC, RPMI medium. As to conditions: for MIC grade, A. terreus: MIC banded into grades; for MIC: Aspergillus terreus, AT4, MIC banded into grades, read-out: MIC grade, A. terreus. Put shortly:
as §2

In experiment [11] the test system is Aspergillus flavus. The experiment is described as follows: MIC, RPMI medium. The conditions noted are these: MIC banded into grades; for MIC: Aspergillus flavus, read-out: MIC grade, A. flavus. In a few lines:
as §2

For experiment [12], the system named is Aspergillus fumigatus AF210. The experiment is described as follows: MIC, RPMI medium. The conditions noted are these: for MIC grade, A. fumigatus 210: MIC banded into grades; for MIC: Aspergillus fumigatus, AF210, MIC banded into grades, read-out: MIC grade, A. fumigatus 210. Put shortly:
as §2

In the case of `CCOCCCn1c(C)cc(-c2ccccc2)c1C(=O)C(=O)Nc1ccc(N2CCN(c3cc(C)cc(C)n3)CC2)cc1` [Example 136, N-{4-[4-(4,6-Dimethyl-pyridin-2-yl)-piperazin-1-yl]-phenyl}-2-[1-(3-ethoxy-propyl)-5-methy-3-phenyl-1H-pyrrol-2-yl]-2-oxo-acetamide], the “MIC grade, A. terreus 49” value in the experiment with Aspergillus terreus AT49 [1] is reported as 3 (A grade of 3 represents an MIC of less than 1 mg/L); in the experiment with Aspergillus terreus AT49 [7], 2 (A grade of 2 represents an MIC of from 1 to 10 mg/L). Moreover, the “MIC grade, A. fumigatus” value in experiment [2] is on record as 3 (A grade of 3 represents an MIC of less than 1 mg/L); in [8], 2 (A grade of 2 represents an MIC of from 1 to 10 mg/L). Further, the “MIC grade, A. niger” value is 3 (A grade of 3 represents an MIC of less than 1 mg/L) in the experiment with Aspergillus niger [3] and 2 (A grade of 2 represents an MIC of from 1 to 10 mg/L) in the experiment with Aspergillus niger [9]. In addition, the “MIC grade, A. terreus” value against Aspergillus terreus AT4 [4] and with Aspergillus terreus AT4 [10] was 2 (A grade of 2 represents an MIC of from 1 to 10 mg/L) throughout. In addition, the “MIC grade, A. flavus” value against Aspergillus flavus [5] is 3 (A grade of 3 represents an MIC of less than 1 mg/L); with Aspergillus flavus [11], 2 (A grade of 2 represents an MIC of from 1 to 10 mg/L). Also, the “MIC grade, A. fumigatus 210” value in experiment [6] is recorded as 3 (A grade of 3 represents an MIC of less than 1 mg/L); in experiment [12], 2 (A grade of 2 represents an MIC of from 1 to 10 mg/L).

One may read the MIC as the smallest concentration in the dilution series that meets the test's criterion for growth inhibition. For `Cc1cc(-c2ccccc2)c(C(=O)C(=O)Nc2ccc(N3CCN(c4ccccn4)CC3)cc2F)n1C` [Example 95, 2-(1,5-Dimethyl-3-phenyl-1H-pyrrol-2-yl)-N-[2-fluoro-4-(4-pyridin-2-yl-piperazin-1-yl)-phenyl]-2-oxo-acetamide], the MIC (in the experiment on Aspergillus terreus AT49 [1]; in experiment [2]; in the experiment on Aspergillus niger [3]; in the experiment on Aspergillus terreus AT4 [4]; in the experiment on Aspergillus flavus [5]; in experiment [6]) was below 1 µg/mL each time. Further, the MIC (with Aspergillus terreus AT49 [7]; in [8]; in the experiment with Aspergillus niger [9]; with Aspergillus terreus AT4 [10]; in the experiment with Aspergillus flavus [11]; in [12]) was below 1 µg/mL each time.

As for `CCCCn1c(C)cc(-c2ccccc2)c1C(=O)C(=O)Nc1ccc(N2CCN(c3cc(C)cc(C)n3)CC2)cc1` [Example 36, 2-(1-Butyl-5-methyl-3-phenyl-1H-pyrrol-2-yl)-N-{4-[4-(4,6-dimethyl-pyridin-2-yl)-piperazin-1-yl]-phenyl}-2-oxo-acetamide], the minimal inhibitory concentration (MIC) (in the experiment on Aspergillus terreus AT49 [1]; in experiment [2]; in the experiment on Aspergillus niger [3]; in the experiment with Aspergillus terreus AT4 [4]; in the experiment with Aspergillus flavus [5]; in [6]) was below 1 µg/mL in each case. The MIC (with Aspergillus terreus AT49 [7]; in [8]; with Aspergillus niger [9]; in the experiment with Aspergillus terreus AT4 [10]; in the experiment on Aspergillus flavus [11]; in experiment [12]) was below 1 µg/mL each time.

On to `COCCn1c(C)cc(-c2ccccc2)c1C(=O)C(=O)Nc1ccc(N2CCN(c3cc(C)cc(C)n3)CC2)cc1Cl` [Example 26, N-{2-Chloro-4-[4-(4,6-dimethyl-pyridin-2-yl)-piperazin-1-yl]-phenyl}-2-[1-(2-methoxy-ethyl)-5-methyl-3-phenyl-1H-pyrrol-2-yl]-2-oxo-acetamide], for which the MIC was below 1 µg/mL in the experiment with Aspergillus terreus AT49 [1]; below 1 µg/mL in [2]; below 1 µg/mL with Aspergillus niger [3]; below 1 µg/mL with Aspergillus terreus AT4 [4]; below 1 µg/mL in experiment [6]; above 10 µg/mL in the experiment on Aspergillus terreus AT49 [7]. For the same compound, the minimal inhibitory concentration (MIC) in experiment [8] was below 1 µg/mL; in the experiment on Aspergillus niger [9] it was below 1 µg/mL; with Aspergillus terreus AT4 [10], above 10 µg/mL; in the experiment with Aspergillus flavus [11], above 10 µg/mL; in [12], below 1 µg/mL. Further, in the experiment on Aspergillus flavus [5], the “MIC grade, A. flavus” value is recorded as 1 (a grade of 1 represents an MIC of greater than 10 mg/L).

For `COC(=O)Cn1c(C)cc(-c2ccccc2)c1C(=O)C(=O)Nc1ccc(N2CCN(c3cc(C)cc(C)n3)CC2)cc1Cl` [Example 98, (2-{2-Chloro-4-[4-(4,6-dimethyl-pyridin-2-yl)-piperazin-1-yl]-phenylaminooxalyl}-5-methyl-3-phenyl-pyrrol-1-yl)-acetic acid methyl ester], the “MIC grade, A. terreus 49” value with Aspergillus terreus AT49 [1] and against Aspergillus terreus AT49 [7] was 3 (A grade of 3 represents an MIC of less than 1 mg/L) in each case. For the same compound, the “MIC grade, A. fumigatus” value in experiment [2] and in experiment [8] was 3 (A grade of 3 represents an MIC of less than 1 mg/L) throughout. The “MIC grade, A. niger” value against Aspergillus niger [3] and in the experiment on Aspergillus niger [9] was 3 (A grade of 3 represents an MIC of less than 1 mg/L) throughout. The “MIC grade, A. terreus” value in the experiment on Aspergillus terreus AT4 [4] and with Aspergillus terreus AT4 [10] was 3 (A grade of 3 represents an MIC of less than 1 mg/L) throughout. The results for the “MIC grade, A. flavus” value in the experiment with Aspergillus flavus [5] and against Aspergillus flavus [11] were 1 (a grade of 1 represents an MIC of greater than 10 mg/L) and 2 (A grade of 2 represents an MIC of from 1 to 10 mg/L), respectively. Besides, the “MIC grade, A. fumigatus 210” value in experiment [6] and in experiment [12] was 3 (A grade of 3 represents an MIC of less than 1 mg/L) each time.

Take `Cc1cc(C)nc(N2CCN(c3ccc(NC(=O)C(=O)c4[nH]c(C)cc4-c4ccccc4)cc3)CC2)c1` [Example 50, N-{4-[4-(4,6-Dimethyl-pyridin-2-yl)-piperazin-1-yl]-phenyl}-2-(5-methyl-3-phenyl-1H-pyrrol-2-yl)-2-oxo-acetamide]: the MIC (in the experiment on Aspergillus terreus AT49 [1]; in experiment [2]; in the experiment on Aspergillus niger [3]; in the experiment on Aspergillus terreus AT4 [4]; in the experiment with Aspergillus flavus [5]; in experiment [6]) was below 1 µg/mL throughout. The MIC (in the experiment on Aspergillus terreus AT49 [7]; in [8]; in the experiment on Aspergillus niger [9]; with Aspergillus terreus AT4 [10]; with Aspergillus flavus [11]; in experiment [12]) was below 1 µg/mL each time.

Turning to `Cc1cc(-c2ccccc2)c(C(=O)C(=O)Nc2ccc(-c3ncco3)cc2)n1C` [Example 147, 2-(1,5-Dimethyl-3-phenyl-1H-pyrrol-2-yl)-N-(4-oxazol-2-yl-phenyl)-2-oxo-acetamide], the MIC (in the experiment with Aspergillus terreus AT49 [1]; in [2]; in the experiment on Aspergillus niger [3]; in the experiment with Aspergillus terreus AT4 [4]; with Aspergillus flavus [5]; in experiment [6]) was below 1 µg/mL each time. Besides, the MIC (with Aspergillus terreus AT49 [7]; in experiment [8]; in the experiment on Aspergillus niger [9]; in the experiment with Aspergillus terreus AT4 [10]; in the experiment with Aspergillus flavus [11]; in experiment [12]) was below 1 µg/mL each time.

On to `Cc1cc(C)nc(N2CCN(c3ccc(NC(=O)C(=O)c4c(-c5ccccc5)ccn4CC(N)=O)cc3)CC2)c1` [Example 75, 2-(1-Carbamoylmethyl-3-phenyl-1H-pyrrol-2-yl)-N-{4-[4-(4,6-dimethyl-pyridin-2-yl)-piperazin-1-yl]-phenyl}-2-oxo-acetamide], for which the minimal inhibitory concentration (MIC) (in the experiment on Aspergillus terreus AT49 [1]; in experiment [2]; with Aspergillus niger [3]; in the experiment on Aspergillus terreus AT4 [4]; with Aspergillus flavus [5]; in experiment [6]) was above 10 µg/mL in each case. Besides, the MIC (in the experiment on Aspergillus terreus AT49 [7]; in experiment [8]; in the experiment with Aspergillus niger [9]; in the experiment on Aspergillus terreus AT4 [10]; in the experiment on Aspergillus flavus [11]; in experiment [12]) was above 10 µg/mL throughout.

For `Cc1cc(C)nc(N2CCN(c3ccc(NC(=O)C(=O)c4c(-c5ccccc5)cc5n4CCC5)cc3)CC2)c1` [Example 6, N-{4-[4-(4,6-Dimethyl-pyridin-2-yl)-piperazin-1-yl]-phenyl}-2-oxo-2-(2-phenyl-6,7-dihydro-5H-pyrrolizin-3-yl)-acetamide], the MIC (with Aspergillus terreus AT49 [1]; in experiment [2]; with Aspergillus niger [3]; with Aspergillus terreus AT4 [4]; in the experiment on Aspergillus flavus [5]; in experiment [6]) was below 1 µg/mL in each case. The MIC (in the experiment on Aspergillus terreus AT49 [7]; in experiment [8]; in the experiment on Aspergillus niger [9]; in the experiment on Aspergillus terreus AT4 [10]; with Aspergillus flavus [11]; in experiment [12]) was below 1 µg/mL throughout.
